Measured values as given in US5760040A, “Indole derivative for treating overproduction of dihydrotestosterone” (Zeria Pharmaceutical Co., Ltd., priority 1994, dated 1998).
pIC50: −log10 of the molar value. Where “and” joins values, the source holds several entries; their conditions need not be identical. Equal entries are not always repeated. Where two headings read alike, the source gives them in different places.

Key:
[1] = molecular target: Testosterone 5α-reductase; experiment: Testosterone 5α-reductase inhibitory action (nuclear fraction of ventral prostate); type: biochemical, rat (male Wistar); settings: rat ventral prostate nuclear fraction; [4-^14 C]-testosterone, NADPH; 60 min at 37° C
Experimental: Testosterone 5α-Reductase Inhibitory Action
Male Wistar rats (age: 9-10 weeks old) were anesthetized with ethyl ether and ventral prostates were dissected. The isolated prostates were weighed and homogenized with ultradisperser(Yamato, Japan) and teflon-glass homogenizer in 3 tissue volumes of 50 mM Tris-HCl buffer(pH 7.2) containing 0.25M sucrose and 1 mM dithiothreitol. The homogenates were filtered with gauze and centrifuged at 3,000 rpm for 10 minutes at 4° C. The pellets were resuspended in same buffer as described above and the resultant suspension was used as the nuclear fraction.
Testosterone 5α-reductase activity was carried out described as follows. The reaction mixture contained […] of nuclear fraction 0.1 ml of 5 mM NADPH, 0.01 ml of test drug dissolved in dimethylsulfoxide and 0.78ml of Tris-HCl buffer(pH 7.0). The reaction was started by addition of 0.01 ml of 150 μM [4-^14 C]-testosterone and incubated for 60 minutes at 37° C. After incubation, reaction was stopped by adding 4 ml of ethyl acetate. 3 ml of ethyl acetate was evaporated under nitrogen to dryness and dissolved in 40 μl of ethyl acetate. 10 μl of ethyl acetate was applied to silica gel thin layer plate(HF254, Merck) and the plate was developed in ethyl acetate and cyclohexane(1:1). The plate was subjected to autoradiography and the radioactivity profiles were determined by scraping the spots of testosterone, dihydrotestosterone and other metabolites and counting in a scintillation counter. Testosterone 5a -reductase activity was calculated for the total radioactivity and radioactivities of dihydrotestosterone and other metabolites. The inhibitory activity of test drug was expressed as IC50 (nM).

α1 -Adrenoceptor = molecular target: T1, α1 -Adrenoceptor (Oryctolagus cuniculus, UniProt O02824); experiment: α1-Adrenoceptor blocking action (antagonism of phenylephrine-induced contraction of isolated urethra and prostate strips); type: cell-based, rabbit (male albino)
T1 construct: smooth muscle strips were prepared from prostate and proximal urethra; from tissue; host or cells: rabbit prostate and proximal urethra smooth muscle strips
T1 sequence (O02824 1-466): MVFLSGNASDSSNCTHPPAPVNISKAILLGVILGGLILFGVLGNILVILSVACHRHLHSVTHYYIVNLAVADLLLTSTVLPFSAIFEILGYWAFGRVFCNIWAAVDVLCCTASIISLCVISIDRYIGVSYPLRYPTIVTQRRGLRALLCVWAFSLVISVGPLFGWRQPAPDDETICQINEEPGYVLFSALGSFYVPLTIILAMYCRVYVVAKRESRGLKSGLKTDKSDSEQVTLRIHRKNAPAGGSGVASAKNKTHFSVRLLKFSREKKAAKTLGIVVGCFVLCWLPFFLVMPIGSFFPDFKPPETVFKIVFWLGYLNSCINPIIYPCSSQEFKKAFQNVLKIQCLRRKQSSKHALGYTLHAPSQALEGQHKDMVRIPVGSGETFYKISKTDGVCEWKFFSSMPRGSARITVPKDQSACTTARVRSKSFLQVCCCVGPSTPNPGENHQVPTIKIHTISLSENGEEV
Experimental: α1 -Adrenoceptor Blocking Action
Male albino rabbits were sacrificed by exsanguination, and the prostate and urethra were isolated. After removal of fat and connective tissues, tranverse smooth muscle strips were prepared from prostate and proximal urethra. Each segmental strip was suspended in an organ bath at 37° C. in a Krebs-Henseleit solution which had been bubbled with 95% O2 and 5% CO2. The isometric contraction under a resting tension of 1 g was recorded with a force-displacement transducer(TB-651T, Nihon Koden) on a recoder(RECTI HORIZ 8K, Nihon Sanei).
After an equilibration of tissues at least 60 minutes, contractions were elicited by repeated dose of phenylephrine until constant contraction responses were obtained. Subsequently, the dose-response curves were obtained by increasing concentrations of phenylephrine(10^-7 -×10^-4 M). After the resting period for 60 minutes, tissues were incubated with test drugs for 30 minutes and dose-response curves were constructed as described above.
In all cases, 10^-5 M propranolol(β-adrenoceptor antagonist) was administered 10 minutes before the contraction by phenylephrine.
The composition of the Krebs-Henseleit solution was as follows(mM): NaCl 118.4, KCl 4.7, MgSO4 1.2, CaCl2 2.5, NaHCO3 25.0, glucose 11.1, KH2 PO4 1.2.
The potency of each test drug was expressed as the pA2 value(negative logarithm of the antagonist dissociation constant).

[2] = isolated rabbit prostate strips, phenylephrine contraction, 30 min incubation with drug, 10^-5 M propranolol, pA2 = negative logarithm of antagonist dissociation constant, read-out: Prostate (pA2) (converted)
[3] = isolated rabbit proximal urethra strips, phenylephrine contraction, 30 min incubation with drug, 10^-5 M propranolol, pA2 = negative logarithm of antagonist dissociation constant, read-out: Urethra (pA2) (converted)

COc1ccccc1N1CCN(CCC(Oc2ccc(C(=O)c3cn(CCCC(=O)O)c4ccccc34)c(C)c2C)c2ccc(C)cc2)CC1 (stereo not drawn) [Example 22, 4-{3-{2,3-Dimethyl-4-{1-(4-methylphenyl)-3-[4-(2-methoxyphenyl)piperazin-1-yl]propoxy}benzoyl}indol-1-yl}butanoic acid]
pIC50 [1]: 8.43

CC(C)Oc1ccccc1N1CCN(CCC(Oc2ccc(C(=O)c3cn(CCCC(=O)O)c4ccccc34)cc2)c2ccccc2)CC1 (stereo not drawn) [Example 5, 4-{3-{4-{1-Phenyl-3-[4-(2-isopropoxyphenyl)piperazin-1-yl]propoxy}benzoyl}indol-1-yl}butanoic acid]
Kb (α1 -Adrenoceptor): 1100 nM and 141 nM

COc1ccccc1N1CCN(CCC(Oc2cccc(C(=O)c3cn(CCCC(=O)O)c4ccccc34)c2)c2ccc(C)cc2)CC1 (stereo not drawn) [Example 28, Potassium 4-{3-{3-{1-(4-methylphenyl)-3-[4-(2-methoxyphenyl)piperazin-1-yl]propoxy}benzoyl}indol-1-yl}butanoate]
Kb (α1 -Adrenoceptor): 166 nM and 102 nM

COc1ccccc1N1CCN(CCCOc2ccc(C(=O)c3cn(CCCC(=O)O)c4ccccc34)cc2)CC1 [Example 3, Potassium 4-{3-{4-{3-[4-(2-methoxyphenyl)piperazin-1-yl]propoxy}benzoyl}indol-1-yl}butanoate]
Kb (α1 -Adrenoceptor): 115 nM and 75.9 nM

COc1ccc(C(CCN2CCN(c3ccccc3OC)CC2)Oc2ccc(C(=O)c3cn(CCCC(=O)O)c4ccccc34)cc2)cc1 (stereo not drawn) [Example 20, Potassium 4-{3-{4-{1-(4-methoxyphenyl)-3-[4-(2-methoxyphenyl)piperazin-1-yl]propoxy}benzoyl}indol-1-yl}butanoate]
Kb (α1 -Adrenoceptor): 692 nM and 562 nM

COc1cc(C(=O)c2cn(CCCC(=O)O)c3ccccc23)ccc1OC(CCN1CCN(c2ccccc2OC)CC1)c1ccc(CC(C)C)cc1 (stereo not drawn) [Example 13, Potassium 4-{3-{3-methoxy-4-{1-(4-isobutylphenyl)-3-[4-(2-methoxyphenyl)piperazin-1-yl]propoxy}benzoyl}indol-1-yl}butanoate]
pIC50 [1]: 8.85

COc1ccccc1N1CCN(CCCOc2ccc(C(=O)c3cn(CCCC(=O)O)c4ccccc34)cc2OCc2ccccc2)CC1 [Example 24, 4-{3-{3-Benzyloxy-4-{3-[4-(2-methoxyphenyl)piperazin-1-yl]propoxy}benzoyl}indol-1-yl}butanoic acid]
Kb (α1 -Adrenoceptor): 631 nM and 100 nM

COc1cc(C(=O)c2cn(CCCC(=O)O)c3ccccc23)ccc1OC(CCN1CCN(c2ccccc2OC(C)C)CC1)c1ccc(C)cc1 (stereo not drawn) [Example 11, Potassium 4-{3-{3-methoxy-4-{1-(4-methylphenyl)-3-[4-(2-isopropoxyphenyl)piperazin-1-yl]propoxy}benzoyl}indol-1-yl}butanoate]
pIC50 [1]: 8.51

COc1ccccc1N1CCN(CCC(Oc2ccc(C(=O)c3cn(CCCC(=O)O)c4ccccc34)cc2OCc2ccccc2)c2ccc(C)cc2)CC1 (stereo not drawn) [Example 26, 4-{3-{3-Benzyloxy-4-{1-(4-methylphenyl)-3-[4-(2-methoxyphenyl)piperazin-1-yl]propoxy}benzoyl}indol-1-yl}butanoic acid]
pIC50 [1]: 8.30

COc1ccccc1N1CCN(CCCOc2cc(C(=O)c3cn(CCCC(=O)O)c4ccccc34)ccc2OCc2ccccc2)CC1 [Example 38, Potassium 4-{3-{4-benzyloxy-3-{3-[4-(2-methoxyphenyl)piperazin-1-yl]propoxy}benzoyl}indol-1-yl}butanoate]
Kb (α1 -Adrenoceptor): 36.3 nM and 16.6 nM

COc1ccccc1N1CCN(CCCOc2cc(C(=O)c3cn(CCCC(=O)O)c4ccccc34)ccc2OCc2ccc(F)cc2)CC1 [Example 42, Potassium 4-{3-{4-(4-fluorophenylmethoxy)-3-{3-[4-(2-methoxyphenyl)piperazin-1-yl]propoxy}benzoyl}indol-1-yl}butanoate]
Kb (α1 -Adrenoceptor): 398 nM and 70.8 nM

COc1ccccc1N1CCN(CCCOc2cc(C(=O)c3cn(CCCC(=O)O)c4ccccc34)ccc2OCc2ccc(C)cc2)CC1 [Example 37, Potassium 4-{3-{4-(4-methylphenylmethoxy)-3-{3-[4-(2-methoxyphenyl)piperazin-1-yl]propoxy}benzoyl}indol-1-yl}butanoate]
Kb (α1 -Adrenoceptor): 120 nM and 19.1 nM | pIC50 [1]: 8.46

COc1cc(C(=O)c2cn(CCCC(=O)O)c3ccccc23)ccc1OC(CCN1CCN(c2ccccc2OC)CC1)c1ccccc1 (stereo not drawn) [Example 14, Potassium 4-{3-{3-methoxy-4-{1-phenyl-3-[4-(2-methoxyphenyl)piperazin-1-yl]propoxy}benzoyl}indol-1-yl}butanoate]
Kb (α1 -Adrenoceptor): 389 nM and 72.4 nM

Cc1ccc(C(CCN2CCN(c3ccccc3OC(C)C)CC2)Oc2ccc(C(=O)c3cn(CCCC(=O)O)c4ccccc34)cc2)cc1 (stereo not drawn) [Example 8, Potassium 4-{3-{4-{1-(4-methylphenyl)-3-[4-(2-isopropoxyphenyl)piperazin-1-yl]propoxy}benzoyl}indol-1-yl}butanoate]
pIC50 [1]: 9.59

CCOc1ccccc1N1CCN(CCCOc2cc(C(=O)c3cn(CCCC(=O)O)c4ccccc34)ccc2OCc2ccc(C)cc2)CC1 [Example 45, Potassium 4-{3-{4-(4-methylphenylmethoxy)-3-{3-[4-(2-ethoxyphenyl)piperazin-1-yl]propoxy}benzoyl}indol-1-yl}butanoate]
Kb (α1 -Adrenoceptor): 56.2 nM and 34.7 nM | pIC50 [1]: 8.82

COc1cc(C(=O)c2cn(CCCC(=O)O)c3ccccc23)ccc1OC(CCN1CCN(c2ccccc2OC(C)C)CC1)c1ccccc1 (stereo not drawn) [Example 16, Potassium 4-{3-{3-methoxy-4-{1-phenyl-3-[4-(2-isopropoxyphenyl)piperazin-1-yl]propoxy}benzoyl}indol-1-yl}butanoate]
Kb (α1 -Adrenoceptor): 155 nM and 85.1 nM

COc1cc(C(=O)c2cn(CCCC(=O)O)c3ccccc23)ccc1O[C@@H](CCN1CCN(c2ccccc2OC)CC1)c1ccccc1 [Example 35, Potassium S-4-{3-{3-methoxy-4-{1-phenyl-3-[4-(2-methoxyphenyl)piperazin-1-yl]propoxy}benzoyl}indol-1-yl}butanoate]
Kb (α1 -Adrenoceptor; [2]): 27.5 nM | Kb (α1 -Adrenoceptor; [3]): 64.6 nM | pIC50 [1]: 8.17

COc1cc(C(=O)c2cn(CCCC(=O)O)c3ccccc23)ccc1OC(CCN1CCN(c2ccccc2OC)CC1)c1ccc(C)cc1 (stereo not drawn) [Example 1, Potassium 4-{3-{3-methoxy-4-{1-(4-methylphenyl)-3-[4-(2-methoxyphenyl)piperazin-1-yl]propoxy}benzoyl}indol-1-yl} butanoate]
Kb (α1 -Adrenoceptor; [2]): 87.1 nM | Kb (α1 -Adrenoceptor; [3]): 380 nM | pIC50 [1]: 8.43

CCOc1ccccc1N1CCN(CCC(Oc2ccc(C(=O)c3cn(CCCC(=O)O)c4ccccc34)cc2OC)c2ccccc2)CC1 (stereo not drawn) [Example 15, Potassium 4-{3-{3-methoxy-4-{1-phenyl-3-[4-(2-ethoxyphenyl)piperazin-1-yl]propoxy}benzoyl}indol-1-yl}butanoate]
Kb (α1 -Adrenoceptor): 251 nM and 50.1 nM | pIC50 [1]: 8.10

COc1ccccc1N1CCN(CCCCOc2cc(C(=O)c3cn(CCCC(=O)O)c4ccccc34)ccc2OCc2ccc(C)cc2)CC1 [Example 46, Potassium 4-{3-{3-{4-[4-(2-methoxyphenyl)piperazin-1-yl]butoxy}-4-(4-methylphenylmethoxy)benzoyl}indol-1-yl}butanoate]
pIC50 [1]: 8.82
